Results taken from PubChem BioAssay (NCI).
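Compound exposure: 48 hours, 5 concentrations, 96-well plates. TGI: concentration producing complete growth inhibition.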

Assays:
Assay in all cases: growth of human tumour cells (NCI), 48 h
[1] = test system: HT29 colon
[2] = test system: SNB-19 CNS
[3] = test system: K-562 leukemia
[4] = test system: NCI-H23 lung
[5] = test system: HOP-62 NSCLC
[6] = test system: A498 renal
[7] = test system: U251 CNS
[8] = test system: IGROV1 ovarian
[9] = test system: RXF 393 renal
[10] = test system: SN12C renal
[11] = test system: M14 melanoma
[12] = test system: OVCAR-8 ovarian
[13] = test system: LOX IMVI melanoma
[14] = test system: MDA-MB-231 breast
[15] = test system: MDA-MB-435
[16] = test system: SK-MEL-2 melanoma
[17] = test system: NCI-H460 lung
[18] = test system: OVCAR-3 ovarian

SMILES	TGI [1] [µM]	TGI [2] [µM]	TGI [3] [µM]	TGI [4] [µM]	TGI [5] [µM]	TGI [6] [µM]	TGI [7] [µM]	TGI [8] [µM]	TGI [9] [µM]	TGI [10] [µM]	TGI [11] [µM]	TGI [12] [µM]	TGI [13] [µM]	TGI [14] [µM]	TGI [15] [µM]	TGI [16] [µM]	TGI [17] [µM]	TGI [18] [µM]
COc1ccc(N2C(=O)C3c4[nH]c5ccccc5c4C4CC(C)CC(C)C4C3C2=O)cc1 (configuration not stated)	> 100	> 100	> 100	> 100	> 100	> 100	> 100	> 100	> 100	> 100	> 100	> 100						
COc1ccc(NC(=O)/C(=N/NC(N)=S)C2C(=O)NC(=S)NC2=O)c(OC)c1	> 100	> 100	> 100	> 100		> 100	> 100	> 100		> 100	> 100	> 100	> 100	> 100	> 100	> 100	> 100	> 100
COc1cc([C@H]2CC(=O)C[C@H](c3cc(OC)c(OC)c(OC)c3)C23C(=O)c2ccccc2C3=O)cc(OC)c1OC	> 100	> 100	> 100	> 100	> 100		> 100	> 100	88.7	> 100	> 100	> 100		> 100	> 100	> 100	> 100	> 100
CC(=O)N(C(C)=O)n1c(-c2ccccc2)n[nH]c1=O	> 100	> 100	> 100	> 100	> 100		> 100	> 100	> 100	> 100	> 100	> 100	> 100	> 100	> 100	> 100		> 100
CN(C)CC1CCCC(CN(C)C)C1=NOC(=O)c1ccccc1 (configuration not stated)	> 100	> 100	> 100	> 100	> 100	> 100	> 100	> 100		> 100	> 100	> 100	> 100			> 100	> 100	> 100
CC1OC(OC2C(OC(=O)[C@@H]3CC(C)(C)C[C@@H]4C5=CC[C@@H]6[C@@]7(C)C[C@H](O)[C@H](OC8OC(CO)C(O)C(O)C8O)[C@@](C)(CO)C7[C@H](O)C[C@@]6(C)[C@]5(C)C[C@@H](O)[C@H]43)OCC(O)C2O)C(O)C(O)C1O (some centres not stated)	> 15	> 15	> 15	> 15	> 15		> 15	> 15	> 15	> 15	> 15	> 15	> 15	> 15	> 15	> 15	> 15	> 15
COc1ccc2c(c1)-c1[nH]c3ccc(OC)cc3c1CC2	24.9	30.1	39.6	25.8	30.9		39.2	26.8		29.3	29.5	27.3	29.8	35	40.2	28.4	32.9	32.9
COc1ccc(C2=NN(C(N)=S)C(c3ccccc3)C2)cc1 (configuration not stated)	> 100	> 100	> 100	> 100	> 100	70.8	> 100	> 100	88.4	> 100	> 100	> 100	> 100		> 100	78.4	> 100	> 100
NC(CCC(=O)NC(CSC(=O)N(O)c1ccccc1)C(=O)NCC(=O)O)C(=O)O (configuration not stated)	> 1000	> 1000	> 1000	> 1000	> 1000	> 1000	> 1000	> 1000	> 1000	> 1000	> 1000	> 1000	> 1000			> 1000	> 1000	> 1000
COc1ccc(/C=C2\N=C(SC)N(CN3CCCCC3)C2=O)cc1	> 100	> 100	> 100	> 100	> 100	> 100	> 100	> 100		> 100	> 100	> 100	> 100	> 100	> 100	> 100		> 100
O=C(c1ccccc1)N1OCCC1Nc1ccc(Br)cc1 (configuration not stated)	> 10	> 10	> 10	> 10	> 10			> 10	> 10	> 10	> 10	> 10	> 10	> 10	> 10	> 10	> 10	> 10
CC(=O)N1C(NN(C)C)CCN1c1ccccc1 (configuration not stated)	> 10		> 10	> 10	> 10			> 10	> 10	> 10	> 10	> 10		> 10	> 10			
CC(C)C(Sc1nc(-c2ccccc2)c(-c2ccccc2)[nH]1)C(=O)NN (configuration not stated)	> 100	> 100		> 100	> 100	> 100	> 100	> 100	> 100	> 100	> 100	> 100	> 100			> 100	> 100	> 100
NC(=O)C1Cc2cc3c(cc21)OCO3 (configuration not stated)	> 100	> 100		> 100	> 100			> 100	> 100		> 100	> 100	> 100	> 100			> 100	> 100
CSc1sc(=S)sc1C(=O)N(C)c1ccccc1	> 100	> 100	> 100	> 100	> 100		> 100	> 100	> 100	> 100	> 100	> 100	> 100			> 100	> 100	> 100
COc1ccc(OC2OC(COC(c3ccccc3)(c3ccc(OC)cc3)c3ccc(OC)cc3)C(O)C(O)C2O)cc1 (configuration not stated)	5.96	26.7	10.2	15.3	24.5	25.3	13.3	20.2		6.59	7.05		3.95	18.1	13	15	9.21	14.7
COC(=O)C1(C(=O)OC)Cc2ccc(C)cc2C2=C1C(=O)c1ccccc1C2=O	62.2	> 100	46.5	46.1	29			44.3		48.1		34.6	39.9	33	31.4	30.7	> 100	14.9
CC(C)(C)OC(=O)N1CCC2(C)CC(=O)CC=C12 (configuration not stated)	> 100	> 100	> 100	> 100	> 100		> 100	> 100	> 100	> 100	> 100	> 100	> 100	> 100	> 100	> 100	> 100	> 100
COc1cccc(N2C(=O)/C(=C\c3ccccc3)SC2c2cc(OC)c(OC)c(OC)c2)c1 (configuration not stated)	> 100	> 100	> 100	> 100	> 100	67.7	> 100	> 100		> 100	> 100	> 100	> 100	> 100	> 100	> 100		
c1ccc2c(c1)cc1c3[nH]c4ccccc4c3ccn21	> 10	> 10	> 10	> 10	> 10		> 10	> 10	> 10	> 10	> 10	> 10	> 10	> 10	> 10	> 10	> 10	> 10
S=C1CSc2c(ccc3ccccc23)N1	> 100	> 100	> 100	> 100	> 100		> 100	> 100	> 100	> 100	> 100	> 100	> 100	> 100	> 100		> 100	> 100
CCCCCCCCCCCCCCCCOCC(CP(=O)([O-])OCC[n+]1ccccc1)OC (configuration not stated)	15.9	21.6	32.8	14.8	25.2	25.5		17.6		24.9	17.9	30				31.9		27.1
O=S(Nc1ccccc1)c1ccc(Cl)c(Cl)c1 (configuration not stated)	> 100	> 100	> 100	> 100	79.1		34.2	> 100		> 100	> 100	> 100	> 100	> 100	92.9	> 100	> 100	> 100
O=C(O)CCc1cccc2c1oc1c(CCC(=O)O)cccc12	> 100	> 100	> 100	> 100		> 100	> 100	> 100	> 100	> 100	> 100	> 100	> 100			> 100	> 100	> 100
COc1c(Br)cc(/C=C(\C#N)c2cccnc2)cc1Br	> 100	> 100	> 100	> 100	> 100		> 100	> 100	> 100	> 100	> 100	> 100				> 100	> 100	> 100
O=C(Nc1ccccc1)n1[nH]c(=O)n(-c2ccccc2)c1=O	> 100	> 100	> 100	> 100		> 100	> 100			> 100		> 100	> 100	> 100	> 100	> 100	> 100	
COC(=O)CN1SC2(SC13C(C)(C)C(=O)C3(C)C)C(C)(C)C(=O)C2(C)C	> 100	> 100	> 100	> 100	> 100	> 100	> 100	> 100		> 100	> 100	> 100	> 100	> 100	> 100	> 100		> 100
CN1C(=O)C(c2c[nH]c3ccccc23)N(C)C(=O)C1c1c[nH]c2ccccc12 (configuration not stated)	> 100		> 100	> 100	> 100		> 100	> 100	> 100	> 100	> 100	> 100	> 100	> 100	> 100		> 100	> 100
Cc1ccc(N(C(=O)Nc2ccc(F)c(Cl)c2)C2=NCC(C)S2)cc1 (configuration not stated)	> 100	> 100	> 100	> 100	> 100	> 100	> 100	> 100		> 100		> 100	> 100	> 100		> 100	> 100	> 100
